Laboratory results from patent publication US6338963B1, “Use of carbon monoxide dependent guanylyl cyclase modifiers to stimulate neuritogenesis” (NeoTherapeutics, Inc., priority 1994, dated 2002).
No end group written: not given here.

Test system: PC12 cells
Test: Neuritogenesis in PC12 cells
Type: cell-based, rat
Conditions: for enhancement of NGF-induced neurite outgrowth: in the presence of NGF, 48 hours; for neurite outgrowth in the absence of NGF: compound alone; for effect of inhibitor on NGF neuritogenic activity / effect on neuritogenic properties of the NO donors: PC12 cells with NGF; for effect of inhibitor on neuritogenic effects of guanosine: PC12 cells with guanosine and NGF
Experimental: Much of the work performed in the characterization of the compounds of the present invention involved the use of PC12 cells. These cells are derived from a rat pheochromocytoma and when grown in the presence of NGF, extend neurites, cease cell division and assume many characteristics of sympathetic neurons. When cultured in the absence of nerve growth factor (NGF), few PC12 cells have neurites greater than one cell diameter. Addition of saturating concentrations of NGF for 48 hours stimulates neurite outgrowth in about 20-35% of the cells. Because they constitute a homogeneous population of neuronal-like cells, without contaminating astroglia type cells, it is possible to study the direct effects of the purine based compounds on neurite outgrowth in these cells.
Cells cultured in RPMI 1640 with 1.5% horse serum and 1.5% fetal bovine serum were re-plated onto poly-ornithine coated 24-well culture plates (2.5×10^4 cells per well). AIT-082 and NGF were added to the various cultures immediately upon plating. After 48 hours, medium was removed and the cells irnmediately fixed in 10% formalin and PBS for 10 minutes. Cells and neurites were counted within 2 days of fixation.
A neurite was defined as a process extending from the cell at least 1 cell body diameter in length and displaying a growth cone at its tip. For each treatment, 2 representative microscope fields were counted from each of 6 sister cultures receiving identical treatments. The total number of cells counted per well (approximately 100 cells) and the total number of cells containing neurites in each well were used to determine fraction of neurite-bearing cells. The mean values (±SEM) were then determined for each of the treatments. To facilitate comparison neurite outgrowth was expressed relative to the proportion of cells bearing neurites in the presence of NGF alone (NGF=100%). The effects of compounds with and without NGF were compared by analysis of variance (ANOVA) followed by Tukey's test for significance.
The results are shown in FIG. 3 where the curve represents different levels of AIT-082 plus saturating concentrations (40 ng/ml) NGF. The center horizontal line represents control values for cells cultured in the presence of 40 ng/ml NGF alone. Upper and lower horizontal lines are indicative of confidence limits of NGF alone as determined using standard statistical methods.

CCOC(=O)CCn1cnc2c(N)ncnc21 [AIT-0026, 3-(6-amino-9H-purin-9-yl)propionic acid, ethyl ester]
modification of neural activity: failed to modify neural activity

O=C(CCn1cnc2c(=O)[nH]cnc21)NCCCN1CCCC1=O [AIT-034, 3-(1,6 dihydro-6-oxo-9hpurin-9-yl)-N-(3-(2-oxopyrrolidin-1-yl)propyl) propanamide]
modification of neural activity: failed to modify neural activity | enhancement of NGF-induced neurite outgrowth: did not enhance NGF-induced neuritogenesis

Nc1ncnc2c1ncn2[C@@H]1O[C@H](COP(=O)(O)OP(=O)(O)OP(=O)(O)O)[C@@H](O)[C@H]1O [ATP, adenosine triphosphate]
neurite outgrowth in the absence of NGF: did not enhance neuritogenesis | enhancement of NGF-induced neurite outgrowth: did not enhance neuritogenesis

Nc1nc2c(ncn2[C@@H]2O[C@H](COP(=O)(O)OP(=O)(O)O)[C@@H](O)[C@H]2O)c(=O)[nH]1 [GDP, guanosine diphosphate]
enhancement of NGF-induced neurite outgrowth: neither GDP nor GMP were effective alone or with NGF

Nc1nc2c(ncn2[C@@H]2O[C@H](COP(=O)(O)O)[C@@H](O)[C@H]2O)c(=O)[nH]1 [GMP, guanosine monophosphate]
enhancement of NGF-induced neurite outgrowth: neither GDP nor GMP were effective alone or with NGF

O=C1C(Nc2ccccc2)=CC(=O)c2ncccc21 [LY83583]
effect of inhibitor on NGF neuritogenic activity: the response elicited by NGF was unaffected | effect of inhibitor on neuritogenic effects of guanosine: inhibited

CN(C)c1ccc2nc3ccc(=[N+](C)C)cc-3sc2c1 [Methylene blue]
effect of inhibitor on neuritogenic action of AIT-082 (PC12 cells): inhibited the action of AIT-082 | effect of inhibitor on NGF neuritogenic activity: no effect on NGF activity | effect of inhibitor on NGF neuritogenic activity (listed as MB): no effect on NGF-stimulated neurite outgrowth | effect of inhibitor on neuritogenic effects of guanosine: abolished the synergistic effects of guanosine with NGF

CCNC(=O)[C@H]1O[C@@H](n2cnc3c(N)ncnc32)[C@H](O)[C@@H]1O [NECA, 5′-N-ethylcarboxamidoadenosine]
neurite outgrowth in the absence of NGF: little stimulation of neurite outgrowth | effect on the actions of guanosine (in the presence and absence of NGF): could synergistically enhance the actions of guanosine | enhancement of NGF-induced neurite outgrowth: also enhanced neuritogenesis, but not to the same extent as guanosine

O=NO [SN, sodium nitrite]
neurite outgrowth in the absence of NGF: neither SNP nor SN elicited neurite outgrowth | enhancement of NGF-induced neurite outgrowth: enhanced NGF-mediated neurite outgrowth in a synergistic manner

C=CC1=C(C)c2cc3[n-]c(cc4[n-]c(cc5nc(cc1n2)C(C)=C5C=C)c(C)c4CCC(=O)O)c(CCC(=O)O)c3C.[Zn+2] [Zinc protoporphyrin IX]
effect of inhibitor on neuritogenic action of AIT-082 (PC12 cells): inhibited the action of AIT-082 | effect of inhibitor on NGF neuritogenic activity: no effect on NGF activity | effect of inhibitor on NGF neuritogenic activity (listed as ZnPP): did not affect those of NGF | effect of inhibitor on neuritogenic effects of guanosine: abolished the neuritogenic effects of guanosine

Nc1ncnc2c1ncn2[C@@H]1O[C@H](CO)[C@@H](O)[C@H]1O [adenosine]
modification of neural activity: relatively ineffective | neurite outgrowth in the absence of NGF: slightly increased the proportion of cells with neurites | enhancement of NGF-induced neurite outgrowth: did not enhance NGF induced neurite outgrowth at any concentration

O=c1[nH]cnc2nc[nH]c12 [hypoxanthine]
modification of neural activity: relatively ineffective | stimulation of neuritogenesis and enhancement of NGF-stimulated neuritogenesis (PC12 cells): weakly effective | enhancement of NGF-induced neurite outgrowth: the greatest, although still modest, enhancement

OC[C@H]1O[C@@H](n2cnc3c(O)ncnc32)[C@H](O)[C@@H]1O [inosine]
modification of neural activity: relatively ineffective | stimulation of neuritogenesis and enhancement of NGF-stimulated neuritogenesis (PC12 cells): weakly effective | enhancement of NGF-induced neurite outgrowth: only slightly enhanced neurite outgrowth

CCCn1cnc2c1c(=O)n(CCCCC(C)=O)c(=O)n2C [propentofylline]
modification of neural activity: failed to modify neural activity

O=c1[nH]c(=O)c2[nH]cnc2[nH]1 [xanthine]
modification of neural activity: relatively ineffective | concentration toxic to the cells (PC12 cells): 300000 µM | enhancement of NGF-induced neurite outgrowth: only slightly enhanced NGF-induced neurite outgrowth

ANF: atrial natriuretic factor, a hormone activating particulate guanylyl cyclase (SLRRSSCFGGRMDRIGAQSGLGCNSFRY; ends and bridges not checked; cysteine pairing not given here; UniProt P01160 124-151, looked up)
enhancement of NGF-induced neurite outgrowth: enhanced NGF-stimulated neurite outgrowth

Methemoglobin: captures and removes nitric oxide (NO) and carbon monoxide (CO) from the culture media
effect of inhibitor on neuritogenic action of AIT-082 (PC12 cells): inhibited the action of AIT-082 | effect of inhibitor on NGF neuritogenic activity: no effect on NGF activity | effect on neuritogenic properties of the NO donors: inhibited

copper protoporphyrin IX [CuPP]
effect of inhibitor on neuritogenic effects of guanosine: did not reduce the ability of guanosine to enhance NGF-dependent neurite outgrowth

hemoglobin
effect of inhibitor on neuritogenic action of AIT-082 (PC12 cells): inhibited | effect on neuritogenic properties of the NO donors: inhibited | effect of inhibitor on neuritogenic effects of guanosine: inhibited the neuritogenic effects of guanosine
